Results from US7078380B2, “Antibacterial agents comprising conjugates of glycopeptides and peptidic membrane associating elements” (priority 2000, dated 2006).
Values after ≈ are worked out from the molar mass of the structure shown. Where two headings read alike, the source gives them in different places. Positions of bridges follow the written chain, without caps; N, C: chain ends. Residues, ends and D or L forms follow the SMILES beside them. Chains are numbered I, II in the order given. *: point of attachment. Cys(free,S-linked) = N[C@@H](CS*)C(=O)O; Myristoyl = CCCCCCCCCCCCCC(=O)*; SPy = c1ccc(S*)nc1

What was measured:
[1] = system: Enterococcus faecalis V 583 (Van B resistant phenotype); settings: E. faecalis V 583
Protocol: (§1) Compounds were tested for antimicrobial activity against a variety of bacterial strains that included one or more of the following microorganisms: Escherichia coli strain TG1, Bacillus subtilis strain 168S, Staphylococcus aureus H, Enterococcus faecium STR 207 (Van A resistant phenotype), Enrterococcus faecium STR211 (Vancomycin sensitive phenotype), and Enterococcus faecalis V 583 (Van B resistant phenotype). For the testing of compounds for antimicrobial activity against E. coli and B. subtilis cultures of each bacterial strain were diluted in 2.5 mL of fresh LB broth to approximately 5×10^6 cells/mL for assay. […] The cultures were grown with shaking for up to 16 h at 37° C. for E. coli cultures and 30° C. for B. subtilis cultures. Antibacterial activity was determined from inspection of the turbidity of the different cultures and from determination of the optical density of the cultures at a wavelength of 600 nm. For the testing of compounds for antimicrobial activity against E. Faecium STR 207, E. faecium 211, E. faecalis V 583, and S. aureus H, a different procedure was used. These microorganisms were cultured in brain heart/0.5% yeast extract (BHY) broth and incubated overnight at 37° C. A sample of each culture was then diluted 40-fold in fresh BHY broth and incubated at 37° C. for 1 h. The resultant mid-log phase cultures were diluted to 106 cfu/mL, then added to wells of 96-well polypropylene plates. […] The 96-well plates were covered and incubated at 37° C. overnight. Minimum inhibitory concentrations were determined by inspection of turbidity after incubation.

[2] = system: Enterococcus faecium STR 207 (Van A resistant phenotype); settings: E. faecium STR 207
Protocol: as §1

[3] = system: Enterococcus faecium STR 211 (Vancomycin sensitive phenotype)
Protocol: as §1

Staphylococcus aureus H = system: Staphylococcus aureus H
Protocol: as §1

Haemolysis assay = type: cell-based; settings: sensitised sheep erythrocytes, 1 hour at 37° C., printed μM or uM, read-out: LC50 (concentration of compound required to give 50% lysis)
Protocol: (§2) Lysis of sensitised sheep erythrocytes was measured using a standard haemolytic assay using a v-bottom microtitre plate format as follows:
(§3) 50 microlitres of a range of concentrations of compound diluted in Hepes buffer were mixed with 100 microlitres of sensitised sheep erythrocytes and then incubated for 1 hour at 37° C. Samples were spun at 1600 rpm at ambient temperature for 3 minutes before transferring 150 microlitres of supernatant to a flat bottom microtitre plate and determining the absorption at 405 or 410 nm. Maximum lysis (Amax) was determined by incubating serum with erythrbcytes in the presence of human serum diluted 1:400 (final concentration in assay mixture) in 0.1 M Hepes/0.15 M NaCl/0.1% gelatin pH 7.4. Background lysis (Ao) was determined by incubating erythrocytes in the absence of any serum or compound, using PBS as a control.

[4] = system: sensitised sheep erythrocytes; assay: Haemolysis assay; type: cell-based; settings: 1 hour at 37° C., printed μM or uM, read-out: LC50 (concentration of compound required to give 50% lysis)
Protocol: as §2, §3

[5] = system: Escherichia coli strain TG1
Protocol: as §1

[6] = system: Bacillus subtilis strain 168S
Protocol: Compounds were tested for antimicrobial activity against a variety of bacterial strains that included one or more of the following microorganisms: Escherichia coli strain TG1, Bacillus subtilis strain 168S, Staphylococcus aureus H, Enterococcus faecium STR 207 (Van A resistant phenotype), Enrterococcus faecium STR211 (Vancomycin sensitive phenotype), and Enterococcus faecalis V 583 (Van B resistant phenotype). For the testing of compounds for antimicrobial activity against E. coli and B. subtilis cultures of each bacterial strain were diluted in 2.5 mL of fresh LB broth to approximately 5×10^6 cells/mL for assay. […] Antibacterial activity was determined from inspection of the turbidity of the different cultures and from determination of the optical density of the cultures at a wavelength of 600 nm. For the testing of compounds for antimicrobial activity against E. Faecium STR 207, E. faecium 211, E. faecalis V 583, and S. aureus H, a different procedure was used. These microorganisms were cultured in brain heart/0.5% yeast extract (BHY) broth and incubated overnight at 37° C. A sample of each culture was then diluted 40-fold in fresh BHY broth and incubated at 37° C. for 1 h. The resultant mid-log phase cultures were diluted to 106 cfu/mL, then added to wells of 96-well polypropylene plates. […] The 96-well plates were covered and incubated at 37° C. overnight. Minimum inhibitory concentrations were determined by inspection of turbidity after incubation.

physchem = settings: dimethylsulphoxide
Protocol: The 2-thiopyridyl content of the peptide was measured by dissolving it to around 0.03 mM to 0.2 mM in 0.1 M Sodium Borate pH 8.0 and reducing by addition of dithiothreitol to 5 mM. The change in optical density at 343 nm was used to calculate the amount of pyridine 2-thione released using an extinction coefficient at this wavelength of 8080 cm−1 M−1.

[7] = STR 211 (Vancomycin sensitive phenotype)

Compound | minimum inhibitory concentration [1] | minimum inhibitory concentration [2] | minimum inhibitory concentration ([3]; E. faecium STR 211) | minimum inhibitory concentration (Staphylococcus aureus H; S. aureus H) | CC50 at 1 hour (Haemolysis assay) | CC50 [4] | minimum inhibitory concentration [3, 7] | minimum inhibitory concentration to prevent the growth of E. coli strain TG1 ([5]; strain TG1, 6 h) | minimum inhibitory concentration to prevent the growth of E. coli strain TG1 ([5]; strain TG1, 16 h) | minimum inhibitory concentration (Staphylococcus aureus H; H) | minimum inhibitory concentration to prevent the growth of B. subtilis strain 168S ([6]; 6 h) | minimum inhibitory concentration to prevent the growth of B. subtilis strain 168S ([6]; 24 h) | solubility (physchem)
CCCCCCCCCCCCCC(=O)NCC(=O)N[C@@H](CO)C(=O)N[C@@H](CO)C(=O)N[C@@H](CCCCN)C(=O)N[C@@H](CO)C(=O)N1CCC[C@H]1C(=O)N[C@@H](CO)C(=O)N[C@@H](CCCCN)C(=O)N[C@@H](CCCCN)C(=O)N[C@@H](CCCCN)C(=O)N[C@@H](CCCCN)C(=O)N[C@@H](CCCCN)C(=O)N[C@@H](CCCCN)C(=O)N1CCC[C@H]1C(=O)NCC(=O)N[C@@H](CC(=O)O)C(=O)N[C@@H](CSSCCNC(=O)[C@H]1NC(=O)[C@H]2NC(=O)[C@H](NC(=O)[C@@H]3NC(=O)[C@H](CC(N)=O)NC(=O)[C@H](NC(=O)[C@@H](CC(C)C)NC)[C@H](O)c4ccc(c(Cl)c4)Oc4cc3cc(c4O[C@@H]3O[C@H](CO)[C@@H](O)[C@H](O)[C@H]3O[C@H]3C[C@](C)(N)[C@H](O)[C@H](C)O3)Oc3ccc(cc3Cl)[C@H]2O)c2ccc(O)c(c2)-c2c(O)cc(O)cc21)C(N)=O [APT2036] | 0.008 mg/mL (≈ 2.28 µM) | 0.008 mg/mL (≈ 2.28 µM) | 8 µg/mL (≈ 2.28 µM) | 4 µg/mL (≈ 1.14 µM) | 71 µM |  |  |  |  |  |  |  | 
CN[C@H](CC(C)C)C(=O)N[C@H]1C(=O)N[C@@H](CC(N)=O)C(=O)N[C@H]2C(=O)N[C@H]3C(=O)N[C@H](C(=O)N[C@H](C(=O)NCCS)c4cc(O)cc(O)c4-c4cc3ccc4O)[C@H](O)c3ccc(c(Cl)c3)Oc3cc2cc(c3O[C@@H]2O[C@H](CO)[C@@H](O)[C@H](O)[C@H]2O[C@H]2C[C@](C)(N)[C@H](O)[C@H](C)O2)Oc2ccc(cc2Cl)[C@H]1O.Cl [APT2035] | 0.016 mg/mL |  | 2 µg/mL | 8 µg/mL |  | > 166 µM |  |  |  |  |  |  | 
CCCCCCCCCCCCCC(=O)NCC(=O)N[C@@H](CO)C(=O)N[C@@H](CO)C(=O)N[C@@H](CCCCN)C(=O)N[C@@H](CO)C(=O)N1CCC[C@H]1C(=O)N[C@@H](CO)C(=O)N[C@@H](CCCCN)C(=O)N[C@@H](CCCCN)C(=O)N[C@@H](CCCCN)C(=O)N[C@@H](CCCCN)C(=O)N[C@@H](CCCCN)C(=O)N[C@@H](CCCCN)C(=O)N1CCC[C@H]1C(=O)NCC(=O)N[C@@H](CC(=O)O)C(=O)N[C@@H](CSSc1ccccn1)C(N)=O [APT542] (Myristoyl-GSSKSPSKKKKKKPGDC(SPy)-NH2) | 0.256 mg/mL (≈ 121 µM) | 0.064 mg/mL (≈ 30.4 µM) |  |  |  |  | 32 µg/mL (≈ 15.2 µM) | 0.022 mg/mL | 0.067 mg/mL | 64 µg/mL (≈ 30.4 µM) | 3 µg/mL | 22 µg/mL | ≥ 10000 µg/mL
CN[C@H](CC(C)C)C(=O)N[C@H]1C(=O)N[C@@H](CC(N)=O)C(=O)N[C@H]2C(=O)N[C@H]3C(=O)N[C@H](C(=O)N[C@H](C(=O)NCCSSc4ccccn4)c4cc(O)cc(O)c4-c4cc3ccc4O)[C@H](O)c3ccc(c(Cl)c3)Oc3cc2cc(c3O[C@@H]2O[C@H](CO)[C@@H](O)[C@H](O)[C@H]2O[C@H]2C[C@](C)(N)[C@H](O)[C@H](C)O2)Oc2ccc(cc2Cl)[C@H]1O.Cl [APT2033] | 0.032 mg/mL | 0.256 mg/mL | 2 µg/mL | 4 µg/mL |  | > 166 µM |  |  |  |  |  |  | 
CCCCCCCCCCCCCC(=O)NCC(=O)N[C@@H](CO)C(=O)N[C@@H](CO)C(=O)N[C@@H](CCCCN)C(=O)N[C@@H](CO)C(=O)N1CCC[C@H]1C(=O)N[C@@H](CO)C(=O)N[C@@H](CCCCN)C(=O)N[C@@H](CC(=O)O)C(=O)N[C@@H](CCCCN)C(=O)N[C@@H](CC(=O)O)C(=O)N[C@@H](CCCCN)C(=O)N[C@@H](CC(=O)O)C(=O)N1CCC[C@H]1C(=O)NCC(=O)N[C@@H](CC(=O)O)C(=O)N[C@@H](CSSCCNC(=O)[C@H]1NC(=O)[C@H]2NC(=O)[C@H](NC(=O)[C@@H]3NC(=O)[C@H](CC(N)=O)NC(=O)[C@H](NC(=O)[C@@H](CC(C)C)NC)[C@H](O)c4ccc(c(Cl)c4)Oc4cc3cc(c4O[C@@H]3O[C@H](CO)[C@@H](O)[C@H](O)[C@H]3O[C@H]3C[C@](C)(N)[C@H](O)[C@H](C)O3)Oc3ccc(cc3Cl)[C@H]2O)c2ccc(O)c(c2)-c2c(O)cc(O)cc21)C(N)=O [APT2041] | 0.016 mg/mL (≈ 4.62 µM) | 0.016 mg/mL (≈ 4.62 µM) | 4 µg/mL (≈ 1.15 µM) | 8 µg/mL (≈ 2.31 µM) | 4.5 µM |  |  |  |  |  |  |  | 
CCCCCCCCCCCCCC(=O)NCC(=O)N[C@@H](CO)C(=O)N[C@@H](CO)C(=O)N[C@@H](CCCCN)C(=O)N[C@@H](CO)C(=O)N1CCC[C@H]1C(=O)N[C@@H](CO)C(=O)N[C@@H](CCCCN)C(=O)N[C@@H](CCCCN)C(=O)N[C@@H](CCCCN)C(=O)N[C@@H](CCCCN)C(=O)N[C@@H](CCCCN)C(=O)N[C@@H](CCCCN)C(=O)N1CCC[C@H]1C(=O)NCC(=O)N[C@@H](CC(=O)O)C(=O)N[C@@H](CSSC[C@H](N)C(=O)O)C(N)=O [APT541] (Myristoyl-GSSKSPSKKKKKKPGDC(Cys(free,S-linked))-NH2) | 0.256 mg/mL (≈ 121 µM) |  |  |  |  |  | 64 µg/mL (≈ 30.2 µM) |  |  | 64 µg/mL (≈ 30.2 µM) |  |  | 
CCCCCCCCCCCCCC(=O)NCC(=O)N[C@@H](CO)C(=O)N[C@@H](CO)C(=O)N[C@@H](CCCCN)C(=O)N[C@@H](CO)C(=O)N1CCC[C@H]1C(=O)N[C@@H](CO)C(=O)N[C@@H](CCCCN)C(=O)N[C@@H](CCCCN)C(=O)N[C@@H](CCCCN)C(=O)N[C@@H](CCCCN)C(=O)N[C@@H](CCCCN)C(=O)N[C@@H](CCCCN)C(=O)N1CCC[C@H]1C(=O)NCC(=O)N[C@@H](CC(=O)O)C(=O)N[C@@H](CSSC[C@H](NC(=O)[C@H](CC(=O)O)NC(=O)CNC(=O)[C@@H]1CCCN1C(=O)[C@H](CCCCN)NC(=O)[C@H](CCCCN)NC(=O)[C@H](CCCCN)NC(=O)[C@H](CCCCN)NC(=O)[C@H](CCCCN)NC(=O)[C@H](CCCCN)NC(=O)[C@H](CO)NC(=O)[C@@H]1CCCN1C(=O)[C@H](CO)NC(=O)[C@H](CCCCN)NC(=O)[C@H](CO)NC(=O)[C@H](CO)NC(=O)CNC(=O)CCCCCCCCCCCCC)C(N)=O)C(N)=O [APT540] (I: Myristoyl-GSSKSPSKKKKKKPGDC-NH2 / II: Myristoyl-GSSKSPSKKKKKKPGDC-NH2; disulfide I:17-II:17) |  |  |  |  |  |  |  | 0.067 mg/mL | 0.2 mg/mL |  | 7 µg/mL | 7 µg/mL | 
